{"source": "paper PMC6379498", "about": "“Radiosynthesis and in vivo evaluation of ^11C-labeled BMS-193885 and its desmethyl analog as PET tracers for neuropeptide Y1 receptors” (EJNMMI Radiopharmacy and Chemistry, 2019)", "key": {"[1]": {"experiment": "Biodistribution of radioactivity in mice after tracer injection", "format": "in vivo", "conditions": "for Radioactivity level, blood / Radioactivity level, brain / Radioactivity level, heart / Radioactivity level, kidney / Radioactivity level, liver / Radioactivity level, lung / Radioactivity level, muscle / Radioactivity level, pancreas / Radioactivity level, small intestine / Radioactivity level, spleen: mean±S.D. n=4", "description": "[^11C]1 (13 MBq/0.12 nmol) or [^11C]2 (15 MBq/0.36 nmol) was intravenously injected into mice (aged 7–8 weeks, weighing 33–38 g, n = 4). Mice were euthanized by cervical dislocation at 5, 15, 30, or 60 min post-injection.\nBlood samples were collected by heart puncture. Tissues were dissected and weighed. The radioactivity in samples was measured with an automatic gamma counter (Wizard 3′′ 1480, PerkinElmer, Waltham, MA, USA). The tissue uptake of radioactivity was expressed as the percentage of injected dose detected per gram of sample (%ID/g, tissue radioactivity/g tissue/injected radioactivity × 100)."}, "NPY Y1-Rs": {"biological_target": "T1, NPY Y1-Rs (Mus musculus, UniProt Q04573)", "T1 construct": "in the lung, spleen, and kidney, which are rich in NPY Y1-Rs; from tissue; host or cells: organs of living mice (blood, heart, lung, spleen, kidney, liver, pancreas, muscle, brain etc.)", "T1 sequence (Q04573 1-382)": "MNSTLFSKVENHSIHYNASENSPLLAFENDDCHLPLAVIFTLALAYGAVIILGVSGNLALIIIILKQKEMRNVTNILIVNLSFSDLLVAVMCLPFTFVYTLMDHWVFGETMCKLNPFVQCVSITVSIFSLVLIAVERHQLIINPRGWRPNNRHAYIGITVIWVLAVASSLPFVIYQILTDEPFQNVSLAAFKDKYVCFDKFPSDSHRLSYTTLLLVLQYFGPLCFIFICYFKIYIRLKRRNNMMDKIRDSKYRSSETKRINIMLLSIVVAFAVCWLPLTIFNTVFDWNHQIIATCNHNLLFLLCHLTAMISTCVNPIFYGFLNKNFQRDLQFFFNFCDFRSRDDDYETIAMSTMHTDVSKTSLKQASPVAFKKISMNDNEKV", "experiment": "Effect of pretreatment with 1 (BMS-193885) on tissue distribution of radioactivity", "format": "in vivo, mice", "conditions": "30 min post-injection, 1 10 mg/kg 20-30 min before tracer, vs control", "description": "[^11C]1 (7.1–14 MBq/0.079–0.23 nmol) or [^11C]2 (6.0 MBq/0.16 nmol) was intravenously injected into mice (aged 7–8 weeks, weighing 32–36 g, n = 4–8) 20–30 min after the administration of the solution of 1 (10 mg/kg body weight [b.w.]/0.1 mL water containing 20% Tween 80), elacridar (5 mg/kg b.w./0.1 mL water), or a control fluid (0.1 mL water). Mice were euthanized by cervical dislocation at 30 min post-injection.\nBlood samples were collected by heart puncture. Tissues were dissected and weighed. […] The tissue uptake of radioactivity was expressed as the percentage of injected dose detected per gram of sample (%ID/g, tissue radioactivity/g tissue/injected radioactivity × 100)."}, "[2]": {"experiment": "Analysis of metabolites in mouse plasma (radio-HPLC)", "format": "in vivo, mice", "description": "[^11C]1 (37–56 MBq/0.73–0.95 nmol) or [^11C]2 (46–61 MBq/1.1–1.5 nmol) was intravenously injected into mice (aged 7–9 weeks, weighing 33–43 g, n = 4). Mice were euthanized by cervical dislocation at 30 min post-injection. Blood samples taken by heart puncture were collected into heparinized syringes. Samples were centrifuged at 13,000×g (Model 5500, KUBOTA, Tokyo, Japan) for 3 min at 4 °C to obtain plasma (0.1–0.2 mL). Plasma samples were added to equivalent volumes of 1 mol/L ammonium acetate solution. Samples were directly loaded into the injector loop, and analyzed using the combination of column-switching HPLC and on-line solid-phase extraction as a modification of the previously described procedures (Chitneni et al. [2008]; Gillings [2009]; Greuter et al. [2005]; Hilton et al. [2000]; Kawamura et al. [2013]). HPLC analysis was performed using the radio-HPLC system for metabolite analysis mentioned in the ‘General’ section above, and also using a Cadenza HS-C18 column (3 μm mesh, 10 mm i.d. × 150 mm length; Imtakt, Kyoto, Japan) fitted with a Cadenza HS-C18 guard cartridge (3 μm mesh, 10 mm i.d. × 8 mm length; Imtakt). Elution was performed using a 0.1 mol/L ammonium acetate solution for 3 min after loading, a mixture of 90% acetonitrile solution and water (0:100 to 40:60, vol./vol.) from 3 to 4 min after loading, and then a mixture of 90% acetonitrile solution and water (40:60, vol./vol.) from 4 to 12 min after loading. The flow rate was 4 mL/min. The retention times of [^11C]1 and [^11C]2 were 10.0 and 10.5 min, respectively."}}, "data": [{"smiles": "COC(=O)C1=C(C)NC(C)=C(C(=O)OC)C1c1cccc(N[11C](=O)NCCCN2CCC(c3cccc(O)c3)CC2)c1", "note": "[[^11C]2]", "values": [{"measurement": "Radioactivity level, blood", "setting": "[1]; 5 min after i.v. injection", "value": "0.65±0.05", "unit": "%ID/g"}, {"measurement": "Radioactivity level, blood", "setting": "[1]; 15 min after i.v. injection", "value": "0.21±0.01", "unit": "%ID/g"}, {"measurement": "Radioactivity level, blood", "setting": "[1]; 30 min after i.v. injection", "value": "0.17±0.02", "unit": "%ID/g"}, {"measurement": "Radioactivity level, blood", "setting": "[1]; 60 min after i.v. injection", "value": "0.19±0.20", "unit": "%ID/g"}, {"measurement": "Radioactivity level, brain", "setting": "[1]; 5 min after i.v. injection", "value": "0.05±0.02", "unit": "%ID/g"}, {"measurement": "Radioactivity level, brain", "setting": "[1]; 15 min after i.v. injection", "value": "0.04±0.04", "unit": "%ID/g"}, {"measurement": "Radioactivity level, brain", "setting": "[1]; 30 min after i.v. injection", "value": "0.01±0.00", "unit": "%ID/g"}, {"measurement": "Radioactivity level, brain", "setting": "[1]; 60 min after i.v. injection", "value": "0.03±0.01", "unit": "%ID/g"}, {"measurement": "Radioactivity level, heart", "setting": "[1]; 5 min after i.v. injection", "value": "0.69±0.09", "unit": "%ID/g"}, {"measurement": "Radioactivity level, heart", "setting": "[1]; 15 min after i.v. injection", "value": "0.42±0.02", "unit": "%ID/g"}, {"measurement": "Radioactivity level, heart", "setting": "[1]; 30 min after i.v. injection", "value": "0.28±0.04", "unit": "%ID/g"}, {"measurement": "Radioactivity level, heart", "setting": "[1]; 60 min after i.v. injection", "value": "0.14±0.04", "unit": "%ID/g"}, {"measurement": "Brain penetration", "setting": "[1]; judged from brain radioactivity at 30 min", "value": "penetrated the brain poorly"}, {"measurement": "Radioactivity level, kidney", "setting": "[1]; 5 min after i.v. injection", "value": "13.25±1.18", "unit": "%ID/g"}, {"measurement": "Radioactivity level, kidney", "setting": "[1]; 15 min after i.v. injection", "value": "10.96±0.51", "unit": "%ID/g"}, {"measurement": "Radioactivity level, kidney", "setting": "[1]; 30 min after i.v. injection", "value": "9.89±0.52", "unit": "%ID/g"}, {"measurement": "Radioactivity level, kidney", "setting": "[1]; 60 min after i.v. injection", "value": "9.23±1.61", "unit": "%ID/g"}, {"measurement": "Radioactivity level, liver", "setting": "[1]; 5 min after i.v. injection", "value": "29.54±1.57", "unit": "%ID/g"}, {"measurement": "Radioactivity level, liver", "setting": "[1]; 15 min after i.v. injection", "value": "24.28±3.04", "unit": "%ID/g"}, {"measurement": "Radioactivity level, liver", "setting": "[1]; 30 min after i.v. injection", "value": "15.54±4.41", "unit": "%ID/g"}, {"measurement": "Radioactivity level, liver", "setting": "[1]; 60 min after i.v. injection", "value": "8.43±2.71", "unit": "%ID/g"}, {"measurement": "Radioactivity level, lung", "setting": "[1]; 5 min after i.v. injection", "value": "1.00±0.08", "unit": "%ID/g"}, {"measurement": "Radioactivity level, lung", "setting": "[1]; 15 min after i.v. injection", "value": "0.79±0.11", "unit": "%ID/g"}, {"measurement": "Radioactivity level, lung", "setting": "[1]; 30 min after i.v. injection", "value": "0.82±0.13", "unit": "%ID/g"}, {"measurement": "Radioactivity level, lung", "setting": "[1]; 60 min after i.v. injection", "value": "0.65±0.08", "unit": "%ID/g"}, {"measurement": "Radioactivity level, muscle", "setting": "[1]; 5 min after i.v. injection", "value": "0.44±0.21", "unit": "%ID/g"}, {"measurement": "Radioactivity level, muscle", "setting": "[1]; 15 min after i.v. injection", "value": "0.30±0.02", "unit": "%ID/g"}, {"measurement": "Radioactivity level, muscle", "setting": "[1]; 30 min after i.v. injection", "value": "0.38±0.17", "unit": "%ID/g"}, {"measurement": "Radioactivity level, muscle", "setting": "[1]; 60 min after i.v. injection", "value": "0.33±0.19", "unit": "%ID/g"}, {"measurement": "Radioactivity level, pancreas", "setting": "[1]; 5 min after i.v. injection", "value": "1.20±0.18", "unit": "%ID/g"}, {"measurement": "Radioactivity level, pancreas", "setting": "[1]; 15 min after i.v. injection", "value": "1.27±0.11", "unit": "%ID/g"}, {"measurement": "Radioactivity level, pancreas", "setting": "[1]; 30 min after i.v. injection", "value": "1.18±0.18", "unit": "%ID/g"}, {"measurement": "Radioactivity level, pancreas", "setting": "[1]; 60 min after i.v. injection", "value": "1.15±0.13", "unit": "%ID/g"}, {"measurement": "Radioactivity level, small intestine", "setting": "[1]; 5 min after i.v. injection", "value": "15.78±6.51", "unit": "%ID/g"}, {"measurement": "Radioactivity level, small intestine", "setting": "[1]; 15 min after i.v. injection", "value": "30.77±8.94", "unit": "%ID/g"}, {"measurement": "Radioactivity level, small intestine", "setting": "[1]; 30 min after i.v. injection", "value": "27.23±12.69", "unit": "%ID/g"}, {"measurement": "Radioactivity level, small intestine", "setting": "[1]; 60 min after i.v. injection", "value": "13.52±4.25", "unit": "%ID/g"}, {"measurement": "Radioactivity level, spleen", "setting": "[1]; 5 min after i.v. injection", "value": "0.79±0.11", "unit": "%ID/g"}, {"measurement": "Radioactivity level, spleen", "setting": "[1]; 15 min after i.v. injection", "value": "0.55±0.07", "unit": "%ID/g"}, {"measurement": "Radioactivity level, spleen", "setting": "[1]; 30 min after i.v. injection", "value": "0.37±0.07", "unit": "%ID/g"}, {"measurement": "Radioactivity level, spleen", "setting": "[1]; 60 min after i.v. injection", "value": "0.23±0.05", "unit": "%ID/g"}, {"measurement": "Change of radioactivity level in blood by pretreatment with 1", "setting": "NPY Y1-Rs; blood", "value": "not changed"}, {"measurement": "Change of radioactivity level in brain by pretreatment with 1", "setting": "NPY Y1-Rs; brain", "value": "not changed"}, {"measurement": "Change of radioactivity level in heart by pretreatment with 1", "setting": "NPY Y1-Rs; heart", "value": "not changed"}, {"measurement": "Change of radioactivity level in kidney by pretreatment with 1", "setting": "NPY Y1-Rs; kidney", "value": "significantly decreased"}, {"measurement": "Change of radioactivity level in lung by pretreatment with 1", "setting": "NPY Y1-Rs; lung", "value": "significantly decreased"}, {"measurement": "Change of radioactivity level in muscle by pretreatment with 1", "setting": "NPY Y1-Rs; muscle", "value": "not changed"}, {"measurement": "Change of radioactivity level in pancreas by pretreatment with 1", "setting": "NPY Y1-Rs; pancreas", "value": "not changed"}, {"measurement": "Change of radioactivity level in spleen by pretreatment with 1", "setting": "NPY Y1-Rs; spleen", "value": "significantly decreased"}, {"measurement": "Percentage of intact tracer in plasma", "setting": "[2]; mouse plasma, 30 min post-injection, radio-HPLC, n=4", "value": "19.9 ± 2.4", "unit": "%"}, {"measurement": "Metabolism in vivo (mouse plasma)", "setting": "[2]; within 30 min post-injection", "value": "rapidly metabolized"}]}]}
